Laboratory results from patent US11168087B2, “Substituted imidazo[1,2-b]pyridazines, substituted imidazo[1,5-b]pyridazines, related compounds, and their use in the treatment of medical disorders” (BIAL—R&D Investments, S.A., priority 2016, dated 2021).

Target: T1, glucocerebrosidase (Gcase) (Homo sapiens, UniProt P04062)
T1 construct: micellar solution containing 10 nM GCase and 100 nM saposin C
T1 sequence (P04062 40-536): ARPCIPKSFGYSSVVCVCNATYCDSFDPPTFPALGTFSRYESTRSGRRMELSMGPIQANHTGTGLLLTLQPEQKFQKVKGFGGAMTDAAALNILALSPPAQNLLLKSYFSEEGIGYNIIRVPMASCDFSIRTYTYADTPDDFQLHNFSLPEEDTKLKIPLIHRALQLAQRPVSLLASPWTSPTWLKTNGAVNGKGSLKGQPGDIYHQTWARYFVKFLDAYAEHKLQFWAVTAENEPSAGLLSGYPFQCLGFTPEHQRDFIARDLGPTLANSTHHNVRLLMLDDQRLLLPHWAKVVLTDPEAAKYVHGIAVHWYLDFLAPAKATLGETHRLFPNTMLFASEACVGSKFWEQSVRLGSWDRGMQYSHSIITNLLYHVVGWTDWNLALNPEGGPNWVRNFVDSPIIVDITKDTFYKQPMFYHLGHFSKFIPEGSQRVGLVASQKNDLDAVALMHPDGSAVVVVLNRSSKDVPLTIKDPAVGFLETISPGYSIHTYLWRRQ
Assay: Glucocerebrosidase (Gcase) activation assay, 4-methylumbelliferyl-beta-D-glucopyranoside substrate, with saposin C
Assay type: biochemical
Settings: 0.25 h; for activation at 0.1 µM: read-out: Percent Gcase Activation 0.1 μM Test Compound; for activation at 1 µM: read-out: Percent Gcase Activation 1 μM Test Compound
Procedure: The ability of exemplary compounds to activate glucocerebrosidase (Gcase) was measured.
A 484 μL aliquot of a 1.0 mg/mL solution of phosphatidylserine (PS) (Sigma P7769) in chloroform was evaporated under a stream of nitrogen for 1 hour. The lipid film was dissolved over 4 minutes of vigorous vortexing in 40 mL of 176 mM K2HPO4/50 mM citric acid (pH 4.7) containing 7.5 μL of triton X-100, resulting in a mixed micellar preparation with a composition of 0.32 mM triton and 0.37 mol % PS. 4-Methylumbelliferyl-beta-D-glucopyranoside (ACROS-337025000) was dissolved in the micellar solution to a final concentration of 2 mM for use as the reaction substrate.
Test compounds were diluted to the desired concentrations with dimethylsulfoxide (DMSO) from 10 mM stocks, and 0.41 μL of the DMSO compound mixture was added to 100 μL of micellar solution containing 10 nM GCase and 100 nM saposin C (Enzo ALX-201-262-C050). Pre-incubation was allowed to occur for 30 minutes at room temperature, after which the reaction was initiated by combining 25 μL of substrate solution with 25 μL of compound/GCase/saposin mixture. The reaction proceeded for 15 minutes at room temperature and was stopped by adding 150 μL of 1M glycine, pH 12.5. The endpoint of the reaction was monitored by measuring fluorescence intensity (excitation: 365 nm; emission: 440 nm) on a SpectraMax i3 instrument (Molecular Devices). Test compounds were screened at 1.0 and 0.1 μM final concentration, and subsequent 8-point dose response curves were obtained using 3-fold dilutions from a maximum final concentration of 5 μM.
The symbol “+” indicates less than 5% Gcase activation; the symbol “++” indicates Gcase activation in the range of 5% up to 20%; and the symbol “+++” indicates Gcase activation greater than 20%.

Row | activation at 0.1 µM | activation at 1 µM | SMILES
1 | > 20% | > 20% | Cc1cc(-c2cncc(Cl)c2)nn2c(C(=O)N[C@H](C3CC3)C(F)(F)F)cnc12
2 | 5 to 20% | > 20% | Cc1cc(-c2cccc(F)c2)nn2c(C(=O)NC(C)C(F)(F)F)cnc12 (stereo not drawn)
3 | > 20% | > 20% | Cc1cc(-c2cncc(Cl)c2)nn2c(C(=O)N[C@@H](C3CC3)C(F)(F)F)cnc12
4 | > 20% | > 20% | COc1cccc(-c2cc(C)c3ncc(C(=O)NC(C4CC4)C(F)(F)F)n3n2)n1 (stereo not drawn)
5 | 5 to 20% | > 20% | Cc1cc(-c2ccc3ocnc3c2)nn2c(C(=O)N[C@H](C)C(F)(F)F)cnc12
6 | < 5% | > 20% | Cc1cc(C)c2cnc(C(=O)Nc3ccc(-c4cocn4)cc3)n2n1
7 | < 5% | > 20% | Cc1cc(C)c2cnc(C(=O)NC(C)(C)C3CC3)n2n1
8 | 5 to 20% | > 20% | Cc1cc(-c2cc(C)c3ncc(C(=O)N[C@@H](C4CC4)C(F)(F)F)n3n2)sn1
9 | < 5% | 5 to 20% | Cc1cc(-c2cccc(C(N)=O)c2)nc2c(C(=O)NC(C3CC3)C(F)(F)F)nsc12 (stereo not drawn)
10 | 5 to 20% | > 20% | Cc1cc(-c2ccc3c(c2)ncn3C)nn2c(C(=O)N[C@H](C3CC3)C(F)(F)F)cnc12
11 | > 20% | > 20% | Cc1cc(-c2ccc3ocnc3c2)nn2c(C(=O)N[C@@H](C)C(F)(F)F)cnc12
12 | < 5% | 5 to 20% | Cc1cc2ncc(C(=O)Nc3ccc4c(c3)CCC4)n2nc1Cl
13 | 5 to 20% | > 20% | Cc1cc(-c2ccns2)nn2c(C(=O)NC(C)(C)C3CC3)cnc12
14 | > 20% | > 20% | Cc1cc(C)c2scc(C(=O)NC(C3CC3)C(F)(F)F)c2n1 (stereo not drawn)
15 | > 20% | > 20% | Cc1cc(-c2ccc(F)cc2)nn2c(C(=O)NC(C)(C)C3CC3)ncc12
16 | < 5% | 5 to 20% | Cc1cc(-c2cccc3ocnc23)nc2c(C(=O)NC(C3CC3)C(F)(F)F)nsc12 (stereo not drawn)
17 | > 20% | > 20% | C#CC(NC(=O)c1ncc2c(C)cc(-c3cccc(F)c3)nn12)C(F)(F)F (stereo not drawn) [2-(3-Fluorophenyl)-4-methyl-N-(1,1,1-trifluorobut-3-yn-2-yl)imidazo[1,5-b]pyridazine-7-carboxamide]
18 | > 20% | > 20% | Cc1cc(-c2occc2C#N)nn2c(C(=O)NC(C3CC3)C(F)(F)F)cnc12 (stereo not drawn)
19 | 5 to 20% | > 20% | Cc1cc(-c2c(F)cccc2C#N)nn2c(C(=O)N[C@@H](C)C(F)(F)F)cnc12 [(S)-6-(2-Cyano-6-fluorophenyl)-8-methyl-N-(1,1,1-trifluoropropan-2-yl)imidazo[1,2-b]pyridazine-3-carboxamide]
20 | > 20% | > 20% | Cc1cc(C)c2snc(C(=O)NC3CCCc4ccccc43)c2n1 (stereo not drawn) [5,7-Dimethyl-N-(1,2,3,4-tetrahydronaphthalen-1-yl)isothiazolo[4,5-b]pyridine-3-carboxamide]
21 | > 20% | > 20% | CCC(NC(=O)c1coc2c(C)cc(C)nc12)c1ccccc1 (stereo not drawn) [5,7-Dimethyl-N-(1-phenylpropyl)furo[3,2-b]pyridine-3-carboxamide]
22 | 5 to 20% | > 20% | Cc1cc(-c2ccc(F)cc2)nn2c(C(=O)N[C@@H](C)C3CC3)cnc12
23 | 5 to 20% | > 20% | Cc1cc(-c2ccc(F)cc2)nn2c(C(=O)NC(C)C(F)(F)F)ncc12 (stereo not drawn)
24 | 5 to 20% | > 20% | Cc1cc(C)c2onc(C(=O)NC3CCCc4ccccc43)c2n1 (stereo not drawn) [5,7-Dimethyl-N-(1,2,3,4-tetrahydronaphthalen-1-yl)isoxazolo[4,5-b]pyridine-3-carboxamide]

Row | activation at 0.1 µM | activation at 1 µM | SMILES
25 | < 5% | 5 to 20% | Cc1cc(-c2ccc(F)cc2C#N)nn2c(C(=O)N[C@H](C)C(F)(F)F)cnc12
26 | > 20% | > 20% | Cc1cc(C)c2snc(C(=O)Nc3ccc4c(c3)CCC4)c2n1 [N-(2,3-Dihydro-1H-inden-5-yl)-5,7-dimethylisothiazolo[4,5-b]pyridine-3-carboxamide]
27 | 5 to 20% | > 20% | Cc1cc(-c2cccc3ncoc23)nn2c(C(=O)NC(C3CC3)C(F)(F)F)cnc12 (stereo not drawn)
28 | 5 to 20% | > 20% | COc1cncc(-c2cc(C)c3ncc(C(=O)N[C@H](C4CC4)C(F)(F)F)n3n2)c1
29 | 5 to 20% | > 20% | Cc1ccc(-c2cc(C)c3ncc(C(=O)N[C@H](C4CC4)C(F)(F)F)n3n2)cn1 [(R)-6-(6-Methylpyridin-3-yl)-N-(1-cyclopropyl-2,2,2-trifluoroethyl)-8-methylimidazo[1,2-b]pyridazine-3-carboxamide]
30 | < 5% | 5 to 20% | Cc1cc(-c2ccccn2)nc2c(C(=O)NC(C3CC3)C(F)(F)F)nsc12 (stereo not drawn)
31 | 5 to 20% | > 20% | Cc1cncc(-c2cc(C)c3ncc(C(=O)N[C@H](C4CC4)C(F)(F)F)n3n2)c1
32 | > 20% | > 20% | Cc1cc(-c2sccc2C#N)nn2c(C(=O)N[C@H](C3CC3)C(F)(F)F)cnc12
33 | 5 to 20% | > 20% | Cc1cc(C#N)c(-c2cc(C)c3ncc(C(=O)N[C@H](C)C(F)(F)F)n3n2)o1
34 | 5 to 20% | > 20% | Cc1cc(-c2ccc(F)cc2)nn2c(C(=O)NC(C)(C)C3CC3)cnc12
35 | 5 to 20% | > 20% | Cc1cc(C)c2cnc(C(=O)NC3CCCc4ccccc43)n2n1 (stereo not drawn)
36 | 5 to 20% | 5 to 20% | C#Cc1ccc(NC(=O)c2cnc3ccc(Cl)nn23)cc1
37 | < 5% | > 20% | Cc1cc(-c2ccc(F)cc2C#N)nn2c(C(=O)N[C@H](C)C3CC3)cnc12
38 | > 20% | > 20% | COc1cccc(-c2cc(C)c3ncc(C(=O)NC(C4CC4)C(F)(F)F)n3n2)c1 (stereo not drawn)
39 | 5 to 20% | > 20% | Cc1cc(C)c2onc(C(=O)Nc3ccc4c(c3)CCC4)c2n1 [N-(2,3-Dihydro-1H-inden-5-yl)-5,7-dimethylisoxazolo[4,5-b]pyridine-3-carboxamide]
40 | > 20% | > 20% | Cc1cc(N2CCC(F)(F)C2)nn2c(C(=O)NC(C3CC3)C(F)(F)F)cnc12 (stereo not drawn)
41 | 5 to 20% | > 20% | Cc1cc(-c2ccc3ncn(C)c3c2)nn2c(C(=O)N[C@H](C3CC3)C(F)(F)F)cnc12 [(R)—N-(1-Cyclopropyl-2,2,2-trifluoroethyl)-8-methyl-6-(1-methyl-1H-benzo[d]imidazol-6-yl)imidazo[1,2-b]pyridazine-3-carboxamide]
42 | > 20% | > 20% | Cc1cc(-c2ccc(C#N)o2)nn2c(C(=O)N[C@H](C3CC3)C(F)(F)F)cnc12
43 | > 20% | > 20% | Cc1cc(-c2cccc(F)c2)nn2c(C(=O)N[C@H](C3CC3)C(F)(F)F)ncc12 [(R)—N-(1-Cyclopropyl-2,2,2-trifluoroethyl)-2-(3-fluorophenyl)-4-methylimidazo[1,5-b]pyridazine-7-carboxamide]
44 | < 5% | > 20% | CCC(NC(=O)c1ncc2c(C)cc(C)nn12)c1ccccc1 (stereo not drawn)
45 | > 20% | > 20% | Cc1cc(-c2ccc3ocnc3c2)nn2c(C(=O)NC(C)C3CC3)cnc12 (stereo not drawn)
46 | 5 to 20% | > 20% | Cc1cc(-c2ccc(F)cc2C#N)nn2c(C(=O)N[C@H](C3CC3)C(F)(F)F)cnc12
47 | < 5% | > 20% | Cc1cc(C)c2onc(C(=O)NC(C3CC3)C(F)(F)F)c2n1 (stereo not drawn) [N-(1-Cyclopropyl-2,2,2-trifluoroethyl)-5,7-dimethylisoxazolo[4,5-b]pyridine-3-carboxamide]
48 | < 5% | > 20% | CCC(NC(=O)c1cnc2c(C)cc(C)nn12)c1ccccc1 (stereo not drawn)
